Data published in patent publication US8609669B2, “Potassium channel modulators” (AbbVie Inc., priority 2010, dated 2013).

Target: T1, KCNQ 2/3 channels (HEK293 cells stably expressing human KCNQ2 and KCNQ3 subunits) (Homo sapiens, UniProt O43525+O43526)
T1 construct: expressed in transfected cells; host or cells: HEK293
Assay: KCNQ2/3 channel activation, thallium flux FLIPR assay (BTC-AM dye)
Format: cell-based
Settings: for Emax: HEK293, maximum response relative to response of retigabine at 10 μM (set at 100%), read-out: Max. %; for EC50: HEK293 cells expressing human KCNQ2 and KCNQ3, FLIPR thallium flux
Description: The following example describes the assay that can be used to identify compounds that activate KCNQ 2/3 channels.
HEK293 cells stably expressing human KCNQ2 and KCNQ3 subunits were seeded in 96-well, black-walled, clear-bottomed, poly-D-lysine coated plates (BD Biosciences, Bedford, Mass.) at a density of 1×10^5 cells per well 24 hours before the assay. On the assay day, BTC-AM dye (Invitrogen, Carlsbad, Calif.) was loaded into the cells by replacing the cell culture medium with 100 μL/well of 4 μM dye in DPBS. Dye loading was allowed to proceed for 2 hours at room temperature and then cells were washed twice in 100 μL/well of assay buffer (in mM: 10 HEPES pH 7.3, 5 glucose, 140 Na-gluconate, 2.5 K-gluconate, 3.6 Ca-gluconate, 2 MgSO4, 0.1 Ouabain) to remove unloaded dye. Cells were incubated in 50 μL of assay buffer before loading onto a FLIPR system (Molecular Devices, Sunnyvale, Calif.). Various concentrations of compounds to be assayed were added to the cells in 50 μL of assay buffer and incubated for 4 minutes. The fluorescence signal was initiated by adding 100 μL of assay buffer containing 6 mM TlNO3 and 10 mM K2SO4. Fluors were excited using the 488-nm line of an argon laser and emission was filtered using a 540±30 nm bandpass filter. Fluorescent signals were recorded for 3 minutes. Responses over baseline values were plotted versus concentrations of test compounds to obtain an EC50 value. The maximum response for each test compound was determined relative to the response produced at 10 μM by retigabine. The maximum response of retigabine at 10 μM was set at 100%.

`Cc1cnc2c(-c3ccc(F)c(C)c3)c(NC(=O)CS(=O)(=O)C3CCCC3)nn2c1` [Example 174, 2-(cyclopentylsulfonyl)-N-[3-(4-fluoro-3-methylphenyl)-6-methylpyrazolo[1,5-a]pyrimidin-2-yl]acetamide] was tested, and the Emax was 67% and the EC50 was greater than 10 µM.
For `Cc1cnc2c(-c3ccc(C(F)(F)F)c(F)c3)c(NC(=O)CC3CCCC3)nn2c1` [Example 87, 2-cyclopentyl-N-{3-[3-fluoro-4-(trifluoromethyl)phenyl]-6-methylpyrazolo[1,5-a]pyrimidin-2-yl}acetamide], the Emax was 239% and the EC50 was 0.1 to 0.5 µM.
`CC(C)(C)c1c(NC(=O)CC2CCCCC2)nn2cccnc12` [Example 130, N-(3-tert-butylpyrazolo[1,5-a]pyrimidin-2-yl)-2-cyclohexylacetamide] was tested, and the Emax was 131% and the EC50 was 0.1 to 0.5 µM.
Work on `CC(C)(C)CCC(=O)Nc1nn2cccnc2c1C(C)(C)C` [Example 170, N-(3-tert-butylpyrazolo[1,5-a]pyrimidin-2-yl)-4,4-dimethylpentanamide] yielded an Emax of 124% and an EC50 of 1 to 10 µM.
`Cc1cnc2c(C(C)(C)C)c(NC(=O)CCC3CCCCC3)nn2c1` [Example 178, N-(3-tert-butyl-6-methylpyrazolo[1,5-a]pyrimidin-2-yl)-3-cyclohexylpropanamide] gave an Emax of 158% and an EC50 of less than 0.1 µM.
In the case of `CC(C)(C)c1c(NC(=O)CCC2CCCCC2)nn2cccnc12` [Example 132, N-(3-tert-butylpyrazolo[1,5-a]pyrimidin-2-yl)-3-cyclohexylpropanamide], the Emax is reported as 142% and the EC50 is reported as less than 0.1 µM.
Work on `Cc1cc(C)n2nc(NC(=O)CCc3ccccc3)c(CC(C)(C)C)c2n1` [Example 15, N-[3-(2,2-dimethylpropyl)-5,7-dimethylpyrazolo[1,5-a]pyrimidin-2-yl]-3-phenylpropanamide] yielded an Emax of 191% and an EC50 of 0.1 to 0.5 µM.
With `CC(C)(C)CC(=O)Nc1nn2cccnc2c1-c1cccnc1` [Example 110, 3,3-dimethyl-N-[3-(pyridin-3-yl)pyrazolo[1,5-a]pyrimidin-2-yl]butanamide] the Emax was 8% and the EC50 was greater than 10 µM.
With `CC(C)(C)OC(=O)Nc1nn2cccnc2c1-c1ccc(OC(F)(F)F)cc1` [Example 148, tert-butyl {3-[4-(trifluoromethoxy)phenyl]pyrazolo[1,5-a]pyrimidin-2-yl}carbamate] the Emax was 20% and the EC50 was greater than 10 µM.
Compound `CC(C)(C)/C=C/c1c(NC(=O)CC(C)(C)C)nn2cccnc12` [Example 144, N-{3-[(1E)-3,3-dimethylbut-1-en-1-yl]pyrazolo[1,5-a]pyrimidin-2-yl}-3,3-dimethylbutanamide] has an Emax of 174% and an EC50 of 0.1 to 0.5 µM.
For `CC(C)(C)c1c(NC(=O)CC(C)(C)c2ccccc2)nn2cccnc12` [Example 126, N-(3-tert-butylpyrazolo[1,5-a]pyrimidin-2-yl)-3-methyl-3-phenylbutanamide], the Emax was 133% and the EC50 was 0.1 to 0.5 µM.
Work on `Cc1cnc2c(-c3ccc(F)c(C)c3)c(NC(=O)C(C)c3ccccc3)nn2c1` (racemic) [Example 176, (±)-N-[3-(4-fluoro-3-methylphenyl)-6-methylpyrazolo[1,5-a]pyrimidin-2-yl]-2-phenylpropanamide] yielded an Emax of 83% and an EC50 of 0.1 to 0.5 µM.
For `COc1ccc(CC(=O)Nc2nn3cccnc3c2C(C)(C)C)cc1` [Example 155, N-(3-tert-butylpyrazolo[1,5-a]pyrimidin-2-yl)-2-(4-methoxyphenyl)acetamide], the Emax was 116% and the EC50 was 1 to 10 µM.
`Cc1cnc2c(-c3ccc(F)cc3)c(NC(=O)Cc3ccccc3)nn2c1` [Example 25, N-[3-(4-fluorophenyl)-6-methylpyrazolo[1,5-a]pyrimidin-2-yl]-2-phenylacetamide] was tested, and the Emax was 171% and the EC50 was 0.1 to 0.5 µM.
In the case of `O=C(Cc1ccccc1O)Nc1nn2cccnc2c1-c1ccc(Cl)cc1` [Example 104, N-[3-(4-chlorophenyl)pyrazolo[1,5-a]pyrimidin-2-yl]-2-(2-hydroxyphenyl)acetamide], the Emax is reported as 10% and the EC50 is reported as greater than 10 µM.
`O=C(CC1CC2CCC1C2)Nc1nn2cccnc2c1-c1ccc(Cl)cc1` (racemic) [Example 158, (±)-exo-2-bicyclo[2.2.1]hept-2-yl-N-[3-(4-chlorophenyl)pyrazolo[1,5-a]pyrimidin-2-yl]acetamide] was tested, and the Emax was 143% and the EC50 was 0.1 to 0.5 µM.
`Cc1cc(-c2c(NC(=O)CCC3CCCC3)nn3c(C)ccnc23)ccc1Cl` [Example 46, N-[3-(4-chloro-3-methylphenyl)-7-methylpyrazolo[1,5-a]pyrimidin-2-yl]-3-cyclopentylpropanamide] was tested, and the Emax was 117% and the EC50 was 0.1 to 0.5 µM.
Compound `O=C(CCC1CCCC1)Nc1nn2cccnc2c1/C=C/c1ccc(C(F)(F)F)cc1` [Example 153, 3-cyclopentyl-N-(3-{(E)-2-[4-(trifluoromethyl)phenyl]vinyl}pyrazolo[1,5-a]pyrimidin-2-yl)propanamide] has an Emax of 50% and an EC50 greater than 10 µM.
`O=C(CCC1CCCC1)Nc1nn2cccnc2c1-c1ccc(C(F)(F)F)c(F)c1` [Example 88, 3-cyclopentyl-N-{3-[3-fluoro-4-(trifluoromethyl)phenyl]pyrazolo[1,5-a]pyrimidin-2-yl}propanamide] was tested, and the Emax was 65% and the EC50 was 0.5 to 1 µM.
`O=C(Cc1ccc(F)cc1)Nc1nn2cccnc2c1-c1cccc(F)c1` [Example 82, 2-(4-fluorophenyl)-N-[3-(3-fluorophenyl)pyrazolo[1,5-a]pyrimidin-2-yl]acetamide] gave an Emax of 112% and an EC50 of 0.5 to 1 µM.
In the case of `CC(C)(C)c1c(NC(=O)C=C2CCCCC2)nn2cccnc12` [Example 163, N-(3-tert-butylpyrazolo[1,5-a]pyrimidin-2-yl)-2-cyclohexylideneacetamide], the Emax is reported as 133% and the EC50 is reported as 1 to 10 µM.
With `Cc1cnc2c(-c3ccc(F)c(C)c3)c(NC(=O)CCC(C)(C)C)nn2c1` [Example 164, N-[3-(4-fluoro-3-methylphenyl)-6-methylpyrazolo[1,5-a]pyrimidin-2-yl]-4,4-dimethylpentanamide] the Emax was 126% and the EC50 was 0.5 to 1 µM.
`O=C(Cc1cccnc1)Nc1nn2cccnc2c1-c1ccc(OC(F)(F)F)cc1` [Example 98, 2-(pyridin-3-yl)-N-{3-[4-(trifluoromethoxy)phenyl]pyrazolo[1,5-a]pyrimidin-2-yl}acetamide] gave an Emax of 72.3% and an EC50 greater than 10 µM.
With `Cc1cnc2c(Cc3ccc(F)cc3)c(NC(=O)CC3CCCC3)nn2c1` [Example 5, 2-cyclopentyl-N-(3-(4-fluorobenzyl)-6-methylpyrazolo[1,5-a]pyrimidin-2-yl)acetamide] the Emax was 143% and the EC50 was less than 0.1 µM.
Compound `CC(C)c1c(NC(=O)CCC2CC2)nn2cccnc12` [Example 118, 3-cyclopropyl-N-(3-isopropylpyrazolo[1,5-a]pyrimidin-2-yl)propanamide] has an Emax of 14% and an EC50 greater than 10 µM.
With `CC(C)(C)c1c(NC(=O)Cc2ccc(F)cc2)nn2cccnc12` [Example 123, N-(3-tert-butylpyrazolo[1,5-a]pyrimidin-2-yl)-2-(4-fluorophenyl)acetamide] the Emax was 142% and the EC50 was 0.1 to 0.5 µM.
`CC(C)(C)c1c(NC(=O)Cc2ccc(Cl)cc2)nn2cccnc12` [Example 152, N-(3-tert-butylpyrazolo[1,5-a]pyrimidin-2-yl)-2-(4-chlorophenyl)acetamide] showed an Emax of 191% and an EC50 of 0.1 to 0.5 µM.
Compound `CC(C)(C)c1c(NC(=O)CC2CCCC2)nn2cccnc12` [Example 154, N-(3-tert-butylpyrazolo[1,5-a]pyrimidin-2-yl)-2-cyclopentylacetamide] has an Emax of 188% and an EC50 of 1 to 10 µM.
`Cc1cc(C)n2nc(NC(=O)CC3CCCCC3)c(-c3cccc(Cl)c3)c2n1` [Example 52, N-[3-(3-chlorophenyl)-5,7-dimethylpyrazolo[1,5-a]pyrimidin-2-yl]-2-cyclohexylacetamide] gave an Emax of 156% and an EC50 of 0.1 to 0.5 µM.
In the case of `CC(C)(CC(=O)Nc1nn2cccnc2c1-c1cccc(F)c1)c1ccccc1` [Example 128, N-[3-(3-fluorophenyl)pyrazolo[1,5-a]pyrimidin-2-yl]-3-methyl-3-phenylbutanamide], the Emax is reported as 96% and the EC50 is reported as 1 to 10 µM.
`O=C(NCC1CCOCC1)Nc1nn2cccnc2c1-c1ccc(Cl)cc1` [Example 103, 1-[3-(4-chlorophenyl)pyrazolo[1,5-a]pyrimidin-2-yl]-3-(tetrahydro-2H-pyran-4-ylmethyl)urea] was tested, and the Emax was 8% and the EC50 was greater than 10 µM.
`Cc1ccc(-c2c(NC(=O)Cc3ccccc3)nn3cccnc23)cc1F` [Example 19, N-[3-(3-fluoro-4-methylphenyl)pyrazolo[1,5-a]pyrimidin-2-yl]-2-phenylacetamide] was tested, and the Emax was 77% and the EC50 was 1 to 10 µM.
`Cc1cc(C)n2nc(NC(=O)Cc3ccc(F)cc3)c(-c3ccccc3)c2n1` [Example 96, N-(5,7-dimethyl-3-phenylpyrazolo[1,5-a]pyrimidin-2-yl)-2-(4-fluorophenyl)acetamide] was tested, and the Emax was 206% and the EC50 was 0.1 to 0.5 µM.
`COc1cc(CC(=O)Nc2nn3cccnc3c2-c2ccc(Cl)cc2)cc(OC)c1` [Example 109, N-[3-(4-chlorophenyl)pyrazolo[1,5-a]pyrimidin-2-yl]-2-(3,5-dimethoxyphenyl)acetamide] was tested, and the Emax was 8% and the EC50 was greater than 10 µM.
